Assay results published in US6599917B1, “Quinuclidine compounds and drugs containing the same as the active ingredient” (priority 1999, dated 2003).

Key:
cholesterol biosynthesis [1] = assay: Measurement of cholesterol biosynthesis inhibitive activity in a rat liver cell; assay type: cell-based; settings: 10 min; isolated rat liver cells, [1-14C]acetic acid added 10 minutes after the specimen
Protocol: (§1) Measurement of Cholesterol and Triglyceride Biosynthesis Inhibitive Activities in a Rat Liver Cell
(§2) A liver cell was isolated from a male SD rat according to a usual method (collagenase perfusion method) and subjected to an experiment.
(§3) The isolated liver cells were planted in an amount of 500 μ1 every well on a Type collagen coated 24 well plate (cell density: 4×10^5 cell/ml). As the cell culture solution, a Williams'E medium (adjusted to pH 7.4) containing 10% FCS, 1 μM insulin, 1 μM dexamethasone, 100 units/ml penicillin and 10 μg/ml streptomycin was used. After the liver cells were incubated in a CO2 incubator for 2 hours, unstuck cells were removed and the liver cells were further incubated overnight.
(§4) After the culture medium was exchanged, the specimen diluted in a 10% DMSO-90% cell culture solution was added to each well in an amount of 5 μ1. DMSO (final concentration: 0.1%) was added to a control group. A [1-^14C]Acetic acid, sodium salt (5 μCi/well) was added to the media 10 minutes and 4 hours after the specimen was added for the measurement of cholesterol synthesis inhibitive action and for the measurement of triglyceride synthesis inhibitive action respectively, followed by culturing for further 2 hours.
(§5) After the cultivation was finished, the supernatant was removed and the cells were washed using PBS(−)(Phosphate buffered saline (Ca^2+, Mg^2+free) twice. Hexane/isopropyl alcohol (3:2, v/v) was added to the cells and the cells were then allowed to stand for 10 minutes to extract intracellular lipid. The extract was transferred to a glass tube and exsiccated under a nitrogen gas stream. Further, the exsiccated extract was washed with 25 mL of petroleum ether and then dissolved in petroleum ether containing the following components: 0.01% squalene, 0.3% free cholesterol, 0.3% cholesterol acetate, 0.1% triolein, 0.01% farnesol and 0.3% lanosterol.
(§6) The resulting solution was spotted on a TLC plate to perform an isolating operation. The spotted solution was developed for 10 minutes by using toluene/isopropyl ether (1:1, v/v) as the solvents and for further 15 minutes by using heptane in place of the above solvent after it was dried using air.
(§7) After the development was finished, the TLC plate was subjected to iodine color development. After each position of free cholesterol and triolein which were used as standards was confirmed, the image of the TLC plate was transferred to a BAS 2000 (Fuji Film) imaging plate by exposure performed for 16 hours. This transferred image was analyzed using a BAS 2000 IP Reader and an Imaging analyzer II to measure radiative activities contained in the free cholesterol and triglyceride fractions.
(§8) The cholesterol biosynthesis inhibitive activity was expressed by a concentration (IC50) at which 50% of the radiative activity of the control group was inhibited and the triceride biosynthesis inhibitive activity was expressed by an inhibition rate (%) to the control group.

[2] = system: triglyceride biosynthesis; assay: Measurement of triglyceride biosynthesis inhibitive activity in a rat liver cell; assay type: cell-based; settings: Rattus norvegicus, 6 h, read-out: Triglyceride biosynthesis inhibitive activity inhibition in 1 μM of the specimen
Protocol: as §1, §2, §3, §4, §5, §6, §7, §8

cholesterol biosynthesis [3] = assay: Measurement of cholesterol biosynthesis inhibitive activity in a rat; assay type: in vivo; settings: 2 h; male SD rat, oral, dose 1 mg/kg, inhibition rate to control group
Protocol: Measurement of Cholesterol Biosynthesis Inhibitive Activity in a Rat
(I) An SPF grade male SD rat (4 weeks age, SLC) was bred for more than one week in a day-night-reversal room and subjected to an experiment made in the daytime. The compound dissolved in a 2% Tween 80 solution was administered (5 ml/kg) to the rat using an oral sonde. After one hour, a [1-^14C]Acetic acid, sodium salt (1.67-2.22 GBq/mmol, 37 MBq/ml, NEN) prepared by diluting to 1.85 MBq/ml by using physiological saline was intraabdominally administered (300 μ1/animal). After one hour, the rat was anesthetized by diethyl ether to carry out exsanguination from the aorta abdominalis. The collected blood was centrifuged at 3000 rpm for 10 minutes to prepare blood plasma.
(II) 1 ml of 4N KOH and 1 ml of ethanol were added to 2 ml of the blood plasma, which was then incubated at 65° C. for one hour and there after, 3 ml of petroleum ether was added. The plasma was shaken for 30 minutes. After the water phase was separated from the organic phase by centrifugation, it was frozen at −80° C. and the radiative activity of the organic phase was measured using a liquid scintillation counter. Or the organic phase was evaporated to dryness using nitrogen gas and the residue was dissolved as a marker in 25 µl of chloroform containing squalene, farnesol and cholesterol. This sample was applied to a TCL plate (Merck) and developed using toluene and isopropyl ether (1:1) for 15 to 20 minutes. A band of cholesterol was cut from the plate to measure the radiative activity by using a liquid scintillation counter. The cholesterol biosynthesis inhibition activity was expressed by an inhibition rate (%) to a control group.

[4] = target: T1, squalene synthesizing enzyme (Rattus norvegicus, UniProt Q02769); assay: Measurement of squalene synthesizing enzyme inhibitive activity by using a rat liver microsome; assay type: biochemical; settings: [3H]-farnesylpyrophosphoric acid
T1 construct: The liver was excised from a male Spraugue-Dawly rat; from tissue; host or cells: liver microsome fraction of male Sprague-Dawley rat (8 to 9 weeks)
T1 sequence (Q02769 1-416): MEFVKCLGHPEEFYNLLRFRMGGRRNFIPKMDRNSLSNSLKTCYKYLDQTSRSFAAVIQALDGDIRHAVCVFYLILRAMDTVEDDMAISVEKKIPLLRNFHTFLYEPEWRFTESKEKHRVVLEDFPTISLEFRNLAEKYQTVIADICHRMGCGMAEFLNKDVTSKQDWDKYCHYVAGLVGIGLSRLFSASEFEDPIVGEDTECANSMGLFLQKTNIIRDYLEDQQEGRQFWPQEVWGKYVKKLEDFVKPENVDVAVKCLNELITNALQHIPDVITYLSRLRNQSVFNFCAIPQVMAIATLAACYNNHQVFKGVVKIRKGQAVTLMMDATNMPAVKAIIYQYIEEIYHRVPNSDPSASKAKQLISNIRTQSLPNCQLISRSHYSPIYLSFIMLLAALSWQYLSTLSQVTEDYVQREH
Protocol: Measurement of Squalene Synthesizing Enzyme Inhibitive Activity by Using a Rat Liver Microsome
(I) The reaction was run on a scale of 500 μ1. 200 µl of a solution containing 125 mM tris-hydrochloric acid (pH: 7.3), 2.5 mM magnesium chloride, 5 mM potassium fluoride and 10 mM reduction type nicotinamidoadenine dinucleotide phosphoric acid, 100 µl of the specimen solution with a 5-fold concentration, 100 µl of distilled water and 50 µl of 0.4 to 1 mg/ml rat liver microsome prepared by the following method were mixed.
(II) The above mixture was pre-incubated at 37° C. for 10 minutes and thereafter, 50 µl of 100 μM [^3H]-farnesylpyrophosphoric acid (30 mCi/mmol, NEN) was added to the mixture to start a reaction. The reaction was continued at 37° C. for 10 minutes. 1 ml of ethanol was added to the resulting mixture to terminate the reaction and then 1 ml of distilled water and 3 ml of petroleum ether were added to the reaction solution, which was then shaken for 30 minutes. The water phase was separated from the oil phase, the water phase was frozen at −70° C. in dry ice/methanol and the radiative activity of the organic phase was measured using a liquid scintillator. Or the organic phase was evaporated to dryness using nitrogen gas and the residue was dissolved as a marker in 25 µl of chloroform containing squalene, farnesol and cholesterol. This sample was spotted on a TCL plate (Merck) and developed using heptane for 15 to 20 minutes. A band of squalene was cut from the plate to measure the radiative activity by using a liquid scintillation counter. The data was expressed by a concentration (IC50) at which 50% of the radiative activity of a control group was inhibited.
Method of the Preparation of a Rat Liver Microsome
The following operations were all carried out on ice and the centrifugation was performed at 4° C. The liver was excised from a male Spraugue-Dawly rat (hereinafter referred to as SD rat) (8 to 9 weeks age) and perfused with 1.15% potassium chloride to remove the blood. Then, the liver was minced using a forceps and the minced liver was homogenized using a Teflon homogenizer. The resulting sample was centrifuged at 16000×g twice for 15 minutes. The supernatant was further centrifuged at 105000×g for 60 minutes. The obtained deposit was determined as a microsome fraction, which was then suspended in a 25 mM tris-hydrochloric acid solution. The concentration of protein was measured quantitatively by a Bradford method and the concentration of protein was adjusted to 20 mg/ml by using the same solution. The resulting solution was stored at […].

What does the source list for `O[C@]1(C#Cc2ccc(OCC3OCCO3)nc2Cc2ccccc2)CN2CCC1CC2` [Example 153, (3R)-3-[2-Benzyl-6-(1,3-dioxolan-2-yl)methyloxy-3-pyridyl]ethynyl-3-quinuclidinol]?
IC50 (cholesterol biosynthesis [1]): 55 nM; inhibition at 1 µM [2]: 85%; inhibition in vivo at 1 mg/kg (cholesterol biosynthesis [3]): 82%; IC50 [4]: 11 nM
